# Test results as given in publication PMC9562371 (RSC Advances, 2022).
# Biological target: T1, m-OLF (myocilin OLF domain) (Homo sapiens, UniProt Q99972)
# T1 sequence (Q99972 244-504): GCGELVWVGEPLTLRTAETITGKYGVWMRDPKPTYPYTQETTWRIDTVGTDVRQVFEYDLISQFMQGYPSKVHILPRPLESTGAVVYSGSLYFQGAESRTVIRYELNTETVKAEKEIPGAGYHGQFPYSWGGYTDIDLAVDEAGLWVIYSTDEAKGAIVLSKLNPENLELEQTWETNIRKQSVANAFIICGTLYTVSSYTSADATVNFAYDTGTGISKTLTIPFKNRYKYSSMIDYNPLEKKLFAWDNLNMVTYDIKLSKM
# Assay: surface plasmon resonance
# Assay type: binding
smiles,measurement,value
O=C(O[C@@H]1Cc2c(O)cc(O)cc2O[C@@H]1c1ccc(O)c(O)c1)c1cc(O)c(O)c(O)c1 [ECG],Kd,19.8 µM
